Read-outs that look alike come from different tables or passages of the source.
Tests used:
[1] = system: U87 MG cells; assay: Efflux kinetics of ^64Cu-NOTA conjugates; format: cell-based, human; details: Table S3
Method: (§1) U87 MG (1 × 10^5 per well) were seeded in corning 24-well plates and cultured in DMEM with 10% FBS at 37 °C. […] For uptake assay, cells were washed with PBS to collect surface-bound and internalized activity, and for internalization assay, glycine-HCl wash was performed to remove surface bound activity. Moreover, cells were harvested, counted, and radioactivity was measured using a gamma counter. Results were expressed as percentage of total activity (%) in counts per min (CPM)/10^6 cells. For efflux studies, U87 MG cells were incubated with the complexes for 1 h, then washed with PBS, and replaced with fresh medium. The retained activity was measured over 0 to 24 h after washing.

[2] = system: SVG p12 cells; assay: Cellular uptake of ^64Cu-NOTA conjugates; format: cell-based, human; details: Table S1
[3] = system: U87 MG cells; assay: Internalization of ^64Cu-NOTA conjugates (glycine-HCl wash); format: cell-based, human
Method: as §1

[4] = system: SVG p12 cells; assay: Efflux kinetics of ^64Cu-NOTA conjugates; format: cell-based, human; details: Table S3
[5] = system: SVG p12 normal glial cells
[6] = system: U87 MG cells; assay: Cellular uptake of ^64Cu-NOTA conjugates; format: cell-based, human
Method: as §1

[7] = system: U87 MG cells; assay: cells; format: cell-based, human; details: U87 MG; for EC50: Homo sapiens, U-87 MG
Method: In this procedure, U87 MG (2 × 10^4 cells per well) were seeded in BD falcon transparent 96-well plates and incubated for 24 h.

[8] = system: U87 MG cells; assay: Subcellular localization (nucleus/cytoplasm fractions); format: cell-based, human
Method: (§2) The nucleus and cytoplasm of U87 MG and SVG p12 cells were extracted following established procedures as previously reported. […] After incubation, cells were washed and incubated on ice with CSK buffer (0.5% Triton X-100, 300 mM sucrose, 100 mM NaCl, 1 mM EDTA, 2 mM MgCl2, and 10 mM HEPES, pH 6.8) for 2 min. After 5 min centrifugation, supernatant containing cytoplasmic extract was collected and transferred in labeled tubes. The resulting pellets were incubated on ice for 2 min with CSK buffer without Triton X-100 to extract the nuclear fraction. The buffer containing the nuclear fraction was collected into separate tubes. The radioactivity in both cytoplasmic and nuclear fractions was measured using a gamma counter (HIDEX Automatic Gamma Counter 2014).

[9] = system: SVG p12 cells; assay: as above; format: cell-based, human
Method: as §2

[10] = target: bovine serum albumin (Bos taurus, UniProt P02769); assay: Binding to bovine serum albumin; format: in vitro ADME
[11] = system: SVG p12 cells; assay: Internalization of ^64Cu-NOTA conjugates (glycine-HCl wash); format: cell-based, human; details: Table S2
[12] = Plasma stability by radio-TLC; format: in vitro ADME; details: 48 h, 37 °C, mouse plasma
Method: To precipitate plasma proteins, the samples were treated twice with ethanol (1:1, v/v), vortexed for 1 min, and centrifuged at 7000 rpm for 10 min. The soluble fraction was separated by ultracentrifugation, and radioactivity was measured. The resulting supernatant was analyzed by radio-TLC on C18 plates. […] Radio-TLC was developed using 0.1 M sodium citrate buffer (pH 5.5), and radiodetection was performed with an Instant Imager system (BioScan, Washington, DC, USA) (Figure S5C). The supernatant fraction was then analyzed using the same methodology described above.

[13] = system: SVG p12 normal glial cells; assay: cells; details: Homo sapiens
[14] = 0.5 h after 1 h incubation and wash

bovine serum albumin, sequence (P02769 25-607): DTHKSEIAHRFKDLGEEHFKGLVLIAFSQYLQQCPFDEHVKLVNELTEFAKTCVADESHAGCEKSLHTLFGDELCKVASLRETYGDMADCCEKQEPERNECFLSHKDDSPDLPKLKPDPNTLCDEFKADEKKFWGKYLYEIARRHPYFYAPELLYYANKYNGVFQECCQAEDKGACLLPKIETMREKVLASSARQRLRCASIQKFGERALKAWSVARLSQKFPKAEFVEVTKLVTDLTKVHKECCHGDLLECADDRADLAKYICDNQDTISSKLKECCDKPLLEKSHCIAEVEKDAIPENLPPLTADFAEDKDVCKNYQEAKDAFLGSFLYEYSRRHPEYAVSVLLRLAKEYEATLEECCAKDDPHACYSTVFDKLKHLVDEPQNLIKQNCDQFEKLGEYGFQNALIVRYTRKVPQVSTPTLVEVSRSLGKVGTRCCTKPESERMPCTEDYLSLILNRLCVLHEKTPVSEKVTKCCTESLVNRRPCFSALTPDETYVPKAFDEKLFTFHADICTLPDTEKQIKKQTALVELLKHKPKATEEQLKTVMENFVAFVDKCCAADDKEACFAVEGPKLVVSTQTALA

N=C(N)NCCC[C@@H]1NC(=O)[C@H](CCCCNC(=O)[C@H](CCCCNC(=O)c2cc(-c3ccccn3)nc(-c3ccccn3)c2)NC(=O)COCCOCCNC(=O)CN2CCN(CC(=O)O)CCN(CC(=O)O)CC2)NC(=O)[C@@H](Cc2ccccc2)NC(=O)[C@H](CC(=O)O)NC(=O)CNC1=O [metal not drawn]
Efflux (retained activity) 0.5h U87 MG [1, 14]: 88.93 ± 9.47 % total activity (CPM) /106 cells
Efflux (retained activity) 1h U87 MG ([1]; 1 h after wash): 93.32 ± 1.47 % total activity (CPM) /106 cells
Efflux (retained activity) 2h U87 MG ([1]; 2 h after wash): 83.19 ± 4.21 % total activity (CPM) /106 cells
Efflux (retained activity) 4h U87 MG ([1]; 4 h after wash): 76.55 ± 2.59 % total activity (CPM) /106 cells
Efflux (retained activity) 24h U87 MG ([1]; 24 h after wash): 51.36 ± 2.08 % total activity (CPM) /106 cells
Uptake 1h SVG p12 ([2]; 1 h): 3.63 ± 0.21 % total activity (CPM) /106 cells
Uptake 2h SVG p12 ([2]; 2 h): 4.96 ± 0.89 % total activity (CPM) /106 cells
Uptake 4h SVG p12 ([2]; 4 h): 5.80 ± 0.49 % total activity (CPM) /106 cells
Uptake 24h SVG p12 ([2]; 24 h): 10.87 ± 2.17 % total activity (CPM) /106 cells
Uptake 48h SVG p12 ([2]; 48 h): 8.38 ± 1.70 % total activity (CPM) /106 cells
Internalized activity 1h U87 MG ([3]; 1 h, Table S2): 5.50 ± 0.80 % total activity (CPM) /106 cells
internalized fraction ([3]; 1 h, U87 MG): 5.5 ± 0.8 % CPM/10^6 cells
Internalized activity 2h U87 MG ([3]; 2 h, Table S2): 5.67 ± 0.67 % total activity (CPM) /106 cells
Internalized activity 4h U87 MG ([3]; 4 h, Table S2): 7.35 ± 1.31 % total activity (CPM) /106 cells
internalization in U87 MG cells ([3]; 24 h): 28.0 ± 1.0%
Internalized activity 24h U87 MG ([3]; 24 h, Table S2): 28.03 ± 1.02 % total activity (CPM) /106 cells
internalization compared to [^64Cu]Cu-NOTA-TP ([3]; 24 h, U87 MG): over 1.5 fold
internalization compared to [^64Cu]Cu-NOTA-c(RGDfK) ([3]; 24 h, U87 MG): more than 2.4 fold
internalized fraction ([3]; 24 h, U87 MG): 28.0 ± 1.0 % CPM/10^6 cells
Internalized activity 48h U87 MG ([3]; 48 h, Table S2): 24.08 ± 1.63 % total activity (CPM) /106 cells
Efflux (retained activity) 0.5h SVG p12 [4, 14]: 85.25 ± 8.63 % total activity (CPM) /106 cells
Efflux (retained activity) 1h SVG p12 ([4]; 1 h after wash): 75.50 ± 10.93 % total activity (CPM) /106 cells
Efflux (retained activity) 2h SVG p12 ([4]; 2 h after wash): 54.29 ± 8.47 % total activity (CPM) /106 cells
Efflux (retained activity) 4h SVG p12 ([4]; 4 h after wash): 59.78 ± 2.75 % total activity (CPM) /106 cells
Efflux (retained activity) 24h SVG p12 ([4]; 24 h after wash): 31.32 ± 1.01 % total activity (CPM) /106 cells
toxicity in normal SVG p12 astrocytes [5]: minimal toxicity
Uptake 1h U87 MG ([6]; 1 h, 37 °C, Table S1): 6.21 ± 1.58 % total activity (CPM) /106 cells
Uptake 2h U87 MG ([6]; 2 h, Table S1): 6.89 ±1.73 % total activity (CPM) /106 cells
Uptake 4h U87 MG ([6]; 4 h, Table S1): 10.33 ± 1.86 % total activity (CPM) /106 cells
uptake in U87 MG cells ([6]; 24 h): 38.8 ± 1.8%
Uptake 24h U87 MG ([6]; 24 h, Table S1): 38.76 ± 1.82 % total activity (CPM) /106 cells
uptake relative to [^64Cu]Cu-NOTA-TP ([6]; 24 h, U87 MG): approximately 1.3 times
uptake relative to [^64Cu]Cu-NOTA-c(RGDfK) ([6]; 24 h, U87 MG): ~2.7 times
Uptake 48h U87 MG ([6]; 48 h, Table S1): 37.56 ± 1.30 % total activity (CPM) /106 cells
improvement in potency compared to nonradioactive analogue ([7]; 24 h, vs ^natCu-NOTA-TP-c(RGDfK)): approximately 2500 fold
cytoplasmic distribution ([8]; 24 h): 17.4 ± 1.5%
nuclear uptake ([8]; 24 h): 6.0 ± 0.5%
cytoplasmic distribution ([8]; 48 h): 21.0 ± 0.7%
cytoplasmic distribution ([8]; 72 h): 15.4 ± 0.5%
nuclear uptake ([9]; SVG p12, 24 h): 2.5 ± 0.8%
nuclear uptake ([9]; SVG p12, 48 h): 0.9 ± 0.2%
nuclear uptake ([9]; SVG p12, 72 h): 0.9 ± 0.3%
binding to bovine serum albumin [10]: 52%
Internalized activity 1h SVG p12 ([11]; 1 h): 2.85 ± 0.56 % total activity (CPM) /106 cells
Internalized activity 2h SVG p12 ([11]; 2 h): 2.46 ± 0.90 % total activity (CPM) /106 cells
Internalized activity 4h SVG p12 ([11]; 4 h): 2.79 ± 0.38 % total activity (CPM) /106 cells
Internalized activity 24h SVG p12 ([11]; 24 h): 7.40 ± 1.43 % total activity (CPM) /106 cells
Internalized activity 48h SVG p12 ([11]; 48 h): 8.21 ± 0.74 % total activity (CPM) /106 cells
free ^64Cu in plasma supernatant by radio-TLC [12]: no detectable free ^64Cu

Cn1nnc2c(C(N)=O)ncn2c1=O [Temozolomide]
EC50 [5]: 72 ± 5 µM
EC50 ([7]; 24 h, read-out: EC50 24 h U87 MG): 800 ± 11 µM
EC50 ([7]; 48 h, read-out: EC50 48 h U87 MG): 580 ± 8 µM
EC50 ([7]; 72 h, read-out: EC50 72 h U87 MG): 575 ± 6 µM
EC50 ([13]; SVGp12, 24 h, read-out: EC50 24 h SVG p12): 80 ± 10 µM
EC50 ([13]; SVGp12, 48 h, read-out: EC50 48 h SVG p12): 76 ± 7 µM

— paper PMC12384813
